Columns and labels:
[1] = biological target: T1, mouse Nact (Mus musculus, UniProt Q67BT3); assay: [14C] citrate uptake in HEK293 cells recombinantly expressing mouse Nact; assay type: cell-based; details: HEK293 overexpressing mouse Nact, citrate substrate; read-out: IC50 [14C] citrate uptake, HEK293 (mouse Nact)
T1 construct: expressed in transfected cells; host or cells: HEK293 (DSMZ), stably transfected, G418 selection
T1 sequence (Q67BT3 1-572): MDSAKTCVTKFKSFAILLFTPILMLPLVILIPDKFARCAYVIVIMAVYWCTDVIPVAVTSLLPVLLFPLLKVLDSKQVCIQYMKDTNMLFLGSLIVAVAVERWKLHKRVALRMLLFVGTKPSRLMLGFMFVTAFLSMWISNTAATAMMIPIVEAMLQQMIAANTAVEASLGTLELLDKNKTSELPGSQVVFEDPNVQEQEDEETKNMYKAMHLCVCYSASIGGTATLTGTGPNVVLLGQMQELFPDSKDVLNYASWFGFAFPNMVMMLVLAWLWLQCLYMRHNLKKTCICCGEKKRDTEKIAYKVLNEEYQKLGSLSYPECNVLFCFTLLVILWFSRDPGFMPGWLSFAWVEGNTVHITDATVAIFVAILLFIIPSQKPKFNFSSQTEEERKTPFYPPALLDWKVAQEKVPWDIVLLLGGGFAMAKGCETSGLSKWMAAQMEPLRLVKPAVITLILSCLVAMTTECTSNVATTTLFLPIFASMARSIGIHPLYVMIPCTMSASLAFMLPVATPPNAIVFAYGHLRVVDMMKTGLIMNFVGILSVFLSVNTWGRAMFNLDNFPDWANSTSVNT
Text: We determined activity on human NaCT by measuring citrate uptake into HepG2 cells, which endogenously expressed NaCT [37] and for mouse Nact, using HEK293 cells recombinantly expressing mouse Nact (HEK-Nact). We cloned the mouse Slc13a5 cDNA encoding Nact as described previously.
For radiometric [14C] citrate uptake assays, we used Cytostar-T plates (Perkin Elmer#RPNQ0166, Waltham, MA, USA). For each assay, we seeded 20,000 HepG2 cells per well on collagen coated 384-well Cytostar-T plates or 5000 HEK293 cells per well on ploy-D-lysine coated 384-well Cytostar-T plates. On the following day, we changed culture medium to assay buffer: 120 mM NaCl, 5.4 mM KCl, 0.8 mM MgSO4, 5 mM glucose, 1.8 mM CaCl2, 25 mM Hepes, 25 mM MES, pH 6.5 (human) and pH 7.5 (mouse). We preincubated cells with compounds at 37 °C for 20 min, after which we added [14C] citrate (3 µM for HEK cells and 10 µM for HepG2 cells) and incubated cells for 50 min at 37 °C. After cooling down for 15 min at 4 °C, we measured the counts using a Microbeta2 reader system (Perkin Elmer).

[2] = biological target: T2, human NaDC3 (SLC13A3) (Homo sapiens, UniProt Q8WWT9); assay: [14C] succinate uptake in HEK293 cells overexpressing human NaDC3; assay type: cell-based
T2 construct: expressed in transfected cells; host or cells: HEK293 (HEK-NaDC3), hygromycin selection
T2 sequence (Q8WWT9 1-602): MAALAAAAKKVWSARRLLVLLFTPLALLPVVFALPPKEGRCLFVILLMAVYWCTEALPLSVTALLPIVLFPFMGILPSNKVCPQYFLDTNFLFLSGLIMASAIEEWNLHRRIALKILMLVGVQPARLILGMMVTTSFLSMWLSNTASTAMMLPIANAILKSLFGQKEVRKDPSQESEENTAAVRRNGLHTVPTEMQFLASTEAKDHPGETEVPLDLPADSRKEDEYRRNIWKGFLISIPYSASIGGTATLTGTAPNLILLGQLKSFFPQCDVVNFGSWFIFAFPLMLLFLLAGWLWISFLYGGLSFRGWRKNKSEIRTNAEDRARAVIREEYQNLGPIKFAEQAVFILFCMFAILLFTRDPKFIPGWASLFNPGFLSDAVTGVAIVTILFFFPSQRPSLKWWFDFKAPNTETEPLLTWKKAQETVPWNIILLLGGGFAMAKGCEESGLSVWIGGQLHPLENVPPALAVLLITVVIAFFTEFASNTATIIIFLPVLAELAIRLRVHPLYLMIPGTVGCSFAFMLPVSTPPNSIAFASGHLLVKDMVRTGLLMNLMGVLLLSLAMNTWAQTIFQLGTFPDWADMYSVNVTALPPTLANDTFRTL
Text: We obtained the compound by screening a library containing more than 50,000 highly diverse lead-like compounds from the Evotec Discovery Library (Evotec SE) and progressing initial hit-through-hit expansion and hit-to-lead optimisation phases. Compound library details are described under https://www.evotec.com/en/execute/drug-discovery-services/hit-identification (accessed on 5 August 2022). We used [14C] citrate uptake assays with HEK293 cells overexpressing recombinant human NaCT (HEK-NaCT). For confirmation, we measured citrate uptake using HepG2 cells which endogenously express NaCT. Furthermore, we measured activity on mouse Nact in a similar assay system using HEK293 cells recombinantly expressing murine Nact (HEK-Nact). We then tested the selectivity of selected compounds with another transporter of the same family—NaDC3. Selectivity was determined by a succinate uptake assay for NaDC3 using HepG2 cells or using HEK293 cells overexpressing recombinant human NaDC3.
For radiometric [14C] succinate uptake assays, we applied HEK cells overexpressing human NaDC3 and measured according to the procedure described previously, with a modified incubation buffer of HBSS buffer, supplemented with 20 mM HEPES, pH 7.4 and positive control 2,2-Dimethylsuccinic acid (Sigma-Aldrich, St. Louis, MO, USA).

O=C(Nc1cc(Cl)cc(C(F)(F)F)c1)OCCC(F)(F)F [ETG-5773]
IC50 [1]: 180 nM | IC50 ([2]; HEK293 overexpressing human NaDC3, succinate substrate): > 20000 nM | Selectivity for NaCT against NaDC3 ([2]; NaCT citrate uptake vs NaDC3 succinate uptake): more than 100 fold
